Results reported in ChEMBL document CHEMBL1201862, “PubChem BioAssay data set” (2004).
The source made the active and inactive calls.

Key:
[1] = Trypanosoma cruzi growth suppression in host cells – NIH3T3 host cells, beta-gal luminescence, confirmation (AID 2044); assay type: functional, cell-based;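 further: intracellular parasites grown in NIH/3T3 mouse fibroblasts as host cells; luminescent beta-galactosidase reporter signal from transgenic T. cruzi replicating inside host cells; inhibitors lower the luminescence signal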
[2] = NIH3T3 cell viability loss – ATP luminescence, mouse fibroblasts, counter-screen, dose response (AID 2010); assay type: functional, cell-based;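 further: cells exposed to compound for about 90 hours before reading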
[3] = target: T1, Heat shock factor protein 1 (Mus musculus, UniProt P38532); experiment: enhancement of HSF1-driven luciferase signal – cell-based, NIH3T3, luminescence, dose retest, confirmation (AID 435004); assay type: functional;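 further: stress induced by proteasome inhibitor MG132 added 30 min after compound; luciferase reporter driven by HSF1 response element in NIH3T3 cells; actives raise luminescence as potentiators of the MG132 stress response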
T1 sequence (P38532 whole entry): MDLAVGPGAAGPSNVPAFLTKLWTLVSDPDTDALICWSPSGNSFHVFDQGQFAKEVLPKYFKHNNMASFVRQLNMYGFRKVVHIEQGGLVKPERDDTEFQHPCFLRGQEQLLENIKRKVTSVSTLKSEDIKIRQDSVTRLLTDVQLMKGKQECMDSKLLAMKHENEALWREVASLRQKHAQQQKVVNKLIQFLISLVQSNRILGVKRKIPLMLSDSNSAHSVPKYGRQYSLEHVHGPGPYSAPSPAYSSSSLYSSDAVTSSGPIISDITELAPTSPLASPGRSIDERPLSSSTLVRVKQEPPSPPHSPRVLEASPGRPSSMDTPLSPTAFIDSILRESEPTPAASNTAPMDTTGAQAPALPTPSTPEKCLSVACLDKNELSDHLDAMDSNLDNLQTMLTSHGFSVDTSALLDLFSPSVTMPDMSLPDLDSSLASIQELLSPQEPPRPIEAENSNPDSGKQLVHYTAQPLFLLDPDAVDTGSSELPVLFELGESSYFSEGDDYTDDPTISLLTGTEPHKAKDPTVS

CAAX prenyl protease 2 = target: T2, CAAX prenyl protease 2 (Saccharomyces cerevisiae S288c, UniProt Q03530); experiment: inhibition of Rce1p peptide cleavage – biochemical, plate reader, dry powder retest, dose response (AID 588851)
T2 sequence (Q03530 whole entry): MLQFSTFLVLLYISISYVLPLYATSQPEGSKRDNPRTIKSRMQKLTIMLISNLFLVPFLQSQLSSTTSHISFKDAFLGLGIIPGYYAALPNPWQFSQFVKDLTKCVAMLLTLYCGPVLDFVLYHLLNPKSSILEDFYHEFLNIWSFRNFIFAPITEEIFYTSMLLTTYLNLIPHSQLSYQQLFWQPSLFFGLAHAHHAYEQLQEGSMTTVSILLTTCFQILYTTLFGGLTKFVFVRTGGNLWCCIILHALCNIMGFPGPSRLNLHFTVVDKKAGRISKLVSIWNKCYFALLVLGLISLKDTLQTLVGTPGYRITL

[4] = target: T3, Calpain-2 catalytic subunit (Sus scrofa, UniProt P43367); experiment: m-calpain protease blockers, concentration series – biochemical, fluorogenic peptide substrate, dose response (AID 1420); assay type: functional
T3 sequence (P43367 whole entry): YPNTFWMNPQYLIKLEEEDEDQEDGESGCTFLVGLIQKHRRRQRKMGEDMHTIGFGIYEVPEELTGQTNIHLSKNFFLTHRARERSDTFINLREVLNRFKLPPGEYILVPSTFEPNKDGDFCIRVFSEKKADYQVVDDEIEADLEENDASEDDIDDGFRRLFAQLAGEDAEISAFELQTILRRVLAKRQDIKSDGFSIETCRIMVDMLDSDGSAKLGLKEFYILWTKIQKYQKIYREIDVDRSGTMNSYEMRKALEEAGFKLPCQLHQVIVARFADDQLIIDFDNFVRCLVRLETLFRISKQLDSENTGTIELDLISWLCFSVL

Insulin-degrading enzyme [5] = target: T4, Insulin-degrading enzyme (Homo sapiens, UniProt P14735); experiment: recombinant IDE activation, cell-free – biochemical, fluorescence polarization, counter-screen for IDE activator project, dose response (AID 588681)
Insulin-degrading enzyme [6] = target: T4, Insulin-degrading enzyme; experiment: cellular IDE activation of Abeta substrate cleavage – fluorescence polarization, HEK cells, dose response (AID 588439); assay type: functional, cell-based
HEK293 [7] = experiment: membrane integrity loss in HEK cells – cell-based, fluorescence, cytotoxicity control for IDE activator project, dose response (AID 588440); assay type: functional; settings: Homo sapiens;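 further: cytotoxicity by LDH release measuring loss of membrane integrity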
HEK293 [8] = experiment: optical interference in Abeta FP readout, dose response, artefact control for IDE activator project, biochemical, fluorescence polarization (AID 588442); assay type: functional, cell-based; settings: Homo sapiens
CHO-K1 = experiment: (§1) Counterscreen for antagonists of the orexin 1 receptor (OX1R; HCRTR1): Homogeneous time resolved fluorescence (HTRF)-based cell-based dose response assay to identify antagonists of the parental CHO-K1 cell line. [Related pubchem assays (depositor defined):AID434989, AID435008, AID463079, AID485270, AID492963, AID492964, AID492965, AID493232, AID504699, AID504701]; assay type: functional; settings: Cricetulus griseus
[9] = as §1, with “Fluorescence-based” for “Homogeneous time resolved fluorescence (HTRF)-based”, “cell-based high throughput” for “cell-based”, “CHO” for “CHO-K1”; assay type: functional
[10] = target: T5, Orexin/Hypocretin receptor type 1 (Homo sapiens, UniProt O43613); experiment: Homogeneous Time Resolved Fluorescence (HTRF)-based cell-based high throughput dose response assay for antagonists of the orexin 1 receptor (OX1R; HCRTR1). [Related pubchem assays (depositor defined):AID434989, AID435008, AID463079, AID485270, AID492963, AID492964, AID492965, AID493232, AID504717, AID504718]; assay type: functional
[11] = target: T5, Orexin/Hypocretin receptor type 1; experiment: Fluorescence-based cell-based high throughput dose response assay for antagonists of the orexin 1 receptor (OX1R; HCRTR1). [Related pubchem assays (depositor defined):AID434989, AID435008, AID463079, AID485270, AID492963, AID492964, AID492965, AID493232, AID504717, AID504718]; assay type: functional
Orexin receptor type 2 [12] = target: T6, Orexin receptor type 2 (Homo sapiens, UniProt O43614); experiment: Counterscreen assay for antagonists of the orexin 1 receptor (OX1R; HCRTR1): Fluorescence-based cell-based dose response assay for antagonists of the orexin 2 receptor (OX2R; HCRTR2), run by assay provider.; assay type: functional
Orexin receptor type 2 [13] = target: T6, Orexin receptor type 2; experiment: Counterscreen assay for antagonists of the orexin 1 receptor (OX1R; HCRTR1): Homogeneous Time Resolved Fluorescence (HTRF)-based cell-based dose response assay for antagonists of the orexin 2 receptor (OX2R; HCRTR2), run by assay provider.; assay type: functional
[14] = target: T7, Sentrin-specific protease 8 (Homo sapiens, UniProt Q96LD8); experiment: inhibition of human SENP8 cleavage activity – biochemical, luminescence, SAR follow-up (AID 504501); assay type: functional
T7 sequence (Q96LD8 whole entry): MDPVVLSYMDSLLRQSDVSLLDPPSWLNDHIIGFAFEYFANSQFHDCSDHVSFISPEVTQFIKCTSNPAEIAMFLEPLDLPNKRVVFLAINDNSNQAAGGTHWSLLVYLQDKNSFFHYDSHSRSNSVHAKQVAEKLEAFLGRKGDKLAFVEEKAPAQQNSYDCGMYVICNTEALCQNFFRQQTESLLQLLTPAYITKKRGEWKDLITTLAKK

Caspase-3 = target: T8, Caspase-3 (Homo sapiens, UniProt P42574); experiment: SAR Analysis of small molecule inhibitors of Sentrin-specific proteases (SENPs) using a Caspase-3 Selectivity assay. [Related pubchem assays (depositor defined):AID2540, AID2599, AID434973, AID489001]; assay type: functional
T8 sequence (P42574 whole entry): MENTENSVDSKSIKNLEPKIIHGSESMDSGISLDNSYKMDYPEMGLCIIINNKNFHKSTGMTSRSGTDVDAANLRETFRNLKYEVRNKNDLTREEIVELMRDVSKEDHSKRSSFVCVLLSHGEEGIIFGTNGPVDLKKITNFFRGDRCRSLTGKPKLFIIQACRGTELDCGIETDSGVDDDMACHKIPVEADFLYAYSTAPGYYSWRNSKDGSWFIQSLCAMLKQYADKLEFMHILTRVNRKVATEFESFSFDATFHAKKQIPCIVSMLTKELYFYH

[15] = target: T9, Sentrin-specific protease 6 (Homo sapiens, UniProt Q9GZR1); experiment: SAR Analysis of small molecule inhibitors of Sentrin-specific protease 6 (SENP6) using a Luminescent assay. [Related pubchem assays (depositor defined):AID2582, AID2599]; assay type: functional
T9 sequence (Q9GZR1 whole entry): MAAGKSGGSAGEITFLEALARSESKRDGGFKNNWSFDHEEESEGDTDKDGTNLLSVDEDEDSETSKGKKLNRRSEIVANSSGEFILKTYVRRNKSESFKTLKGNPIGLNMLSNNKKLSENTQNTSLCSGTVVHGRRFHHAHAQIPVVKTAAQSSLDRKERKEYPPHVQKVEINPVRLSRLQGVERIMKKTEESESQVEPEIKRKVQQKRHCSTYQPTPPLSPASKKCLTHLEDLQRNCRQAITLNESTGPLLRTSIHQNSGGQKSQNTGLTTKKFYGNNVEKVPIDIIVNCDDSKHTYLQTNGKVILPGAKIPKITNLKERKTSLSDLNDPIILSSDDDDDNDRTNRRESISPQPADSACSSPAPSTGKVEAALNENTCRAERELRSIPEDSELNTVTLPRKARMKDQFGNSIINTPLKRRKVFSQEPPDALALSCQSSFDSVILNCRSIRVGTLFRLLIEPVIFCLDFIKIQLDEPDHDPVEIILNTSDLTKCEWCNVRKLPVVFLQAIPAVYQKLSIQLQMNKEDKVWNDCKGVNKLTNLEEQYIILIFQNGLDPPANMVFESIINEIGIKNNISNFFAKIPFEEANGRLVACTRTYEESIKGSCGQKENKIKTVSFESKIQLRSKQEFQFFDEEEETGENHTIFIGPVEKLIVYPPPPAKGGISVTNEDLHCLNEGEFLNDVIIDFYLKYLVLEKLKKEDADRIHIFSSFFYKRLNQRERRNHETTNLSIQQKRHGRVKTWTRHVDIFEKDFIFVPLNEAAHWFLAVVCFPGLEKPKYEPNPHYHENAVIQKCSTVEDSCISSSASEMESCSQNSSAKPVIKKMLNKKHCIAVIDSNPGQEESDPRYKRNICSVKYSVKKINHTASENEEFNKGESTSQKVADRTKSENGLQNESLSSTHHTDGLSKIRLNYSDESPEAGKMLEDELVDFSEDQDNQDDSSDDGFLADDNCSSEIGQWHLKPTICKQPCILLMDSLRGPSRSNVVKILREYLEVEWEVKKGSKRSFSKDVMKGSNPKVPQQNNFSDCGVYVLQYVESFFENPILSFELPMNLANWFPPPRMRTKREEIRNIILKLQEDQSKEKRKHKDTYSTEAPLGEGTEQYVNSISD

[16] = target: T10, Sentrin-specific protease 7 (Homo sapiens, UniProt Q9BQF6); experiment: inhibition of human SENP7 cleavage activity – biochemical, luminescence, SAR follow-up (AID 504497); assay type: functional
T10 sequence (Q9BQF6 whole entry): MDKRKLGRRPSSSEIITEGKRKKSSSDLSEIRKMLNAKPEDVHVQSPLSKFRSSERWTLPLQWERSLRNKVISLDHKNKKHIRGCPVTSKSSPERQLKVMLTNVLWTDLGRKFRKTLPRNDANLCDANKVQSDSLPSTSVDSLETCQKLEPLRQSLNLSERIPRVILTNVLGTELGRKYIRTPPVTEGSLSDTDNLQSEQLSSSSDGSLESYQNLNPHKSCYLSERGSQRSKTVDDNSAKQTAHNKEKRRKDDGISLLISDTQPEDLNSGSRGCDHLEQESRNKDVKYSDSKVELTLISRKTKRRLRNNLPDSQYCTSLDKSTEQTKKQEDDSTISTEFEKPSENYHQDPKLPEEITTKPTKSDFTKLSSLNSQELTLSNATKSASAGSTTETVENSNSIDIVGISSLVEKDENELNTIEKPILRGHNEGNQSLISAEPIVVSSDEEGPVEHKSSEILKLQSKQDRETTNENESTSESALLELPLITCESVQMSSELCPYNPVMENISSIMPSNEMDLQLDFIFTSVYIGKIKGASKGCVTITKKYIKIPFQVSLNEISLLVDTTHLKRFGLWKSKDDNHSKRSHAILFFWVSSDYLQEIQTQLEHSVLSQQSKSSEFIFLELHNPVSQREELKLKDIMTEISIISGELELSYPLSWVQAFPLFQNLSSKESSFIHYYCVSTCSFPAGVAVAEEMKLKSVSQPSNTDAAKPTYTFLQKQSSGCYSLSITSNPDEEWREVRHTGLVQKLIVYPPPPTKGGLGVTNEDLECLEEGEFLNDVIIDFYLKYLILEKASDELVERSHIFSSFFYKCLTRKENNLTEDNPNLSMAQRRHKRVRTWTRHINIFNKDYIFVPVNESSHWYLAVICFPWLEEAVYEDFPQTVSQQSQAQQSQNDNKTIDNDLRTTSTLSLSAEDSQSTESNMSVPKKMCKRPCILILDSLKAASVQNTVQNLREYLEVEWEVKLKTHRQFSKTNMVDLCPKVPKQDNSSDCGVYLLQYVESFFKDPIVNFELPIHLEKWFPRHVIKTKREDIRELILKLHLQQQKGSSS

T4 sequence (P14735 whole entry): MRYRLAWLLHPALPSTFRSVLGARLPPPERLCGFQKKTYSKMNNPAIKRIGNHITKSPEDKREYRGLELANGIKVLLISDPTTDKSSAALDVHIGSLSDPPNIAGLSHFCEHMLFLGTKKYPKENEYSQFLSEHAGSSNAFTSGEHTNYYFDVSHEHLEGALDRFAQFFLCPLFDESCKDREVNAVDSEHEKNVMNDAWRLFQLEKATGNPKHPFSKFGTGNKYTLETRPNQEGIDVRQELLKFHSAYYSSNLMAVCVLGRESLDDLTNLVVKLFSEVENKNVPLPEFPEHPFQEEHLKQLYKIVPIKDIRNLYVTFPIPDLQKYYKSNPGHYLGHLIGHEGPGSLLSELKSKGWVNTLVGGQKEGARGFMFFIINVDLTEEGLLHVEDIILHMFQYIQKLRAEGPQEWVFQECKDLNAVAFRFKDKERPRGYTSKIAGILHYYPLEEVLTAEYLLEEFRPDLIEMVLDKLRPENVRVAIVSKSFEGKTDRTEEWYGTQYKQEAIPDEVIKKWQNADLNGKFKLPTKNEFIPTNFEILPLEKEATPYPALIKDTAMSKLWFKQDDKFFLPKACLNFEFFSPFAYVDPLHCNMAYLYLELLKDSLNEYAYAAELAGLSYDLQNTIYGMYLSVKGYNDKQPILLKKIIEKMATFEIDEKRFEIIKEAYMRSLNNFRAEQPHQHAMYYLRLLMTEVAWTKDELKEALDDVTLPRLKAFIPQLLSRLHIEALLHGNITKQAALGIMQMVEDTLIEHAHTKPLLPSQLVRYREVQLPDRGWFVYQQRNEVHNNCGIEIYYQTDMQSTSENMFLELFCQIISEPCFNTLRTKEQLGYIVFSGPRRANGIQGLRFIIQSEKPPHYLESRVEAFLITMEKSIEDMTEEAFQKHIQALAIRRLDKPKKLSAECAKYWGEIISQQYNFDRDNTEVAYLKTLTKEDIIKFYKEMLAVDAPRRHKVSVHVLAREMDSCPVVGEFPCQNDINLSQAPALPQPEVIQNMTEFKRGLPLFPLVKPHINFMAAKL
T5 sequence (O43613 whole entry): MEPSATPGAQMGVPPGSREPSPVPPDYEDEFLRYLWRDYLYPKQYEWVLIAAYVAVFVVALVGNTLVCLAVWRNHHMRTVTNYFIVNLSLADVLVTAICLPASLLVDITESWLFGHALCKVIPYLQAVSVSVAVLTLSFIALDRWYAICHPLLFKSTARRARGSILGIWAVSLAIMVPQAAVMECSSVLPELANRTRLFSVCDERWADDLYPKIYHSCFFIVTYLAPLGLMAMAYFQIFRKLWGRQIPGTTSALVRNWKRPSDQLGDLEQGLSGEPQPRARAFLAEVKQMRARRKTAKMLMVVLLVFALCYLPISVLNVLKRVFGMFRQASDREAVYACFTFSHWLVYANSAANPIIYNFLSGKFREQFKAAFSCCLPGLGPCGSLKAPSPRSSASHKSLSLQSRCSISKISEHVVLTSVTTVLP
T6 sequence (O43614 whole entry): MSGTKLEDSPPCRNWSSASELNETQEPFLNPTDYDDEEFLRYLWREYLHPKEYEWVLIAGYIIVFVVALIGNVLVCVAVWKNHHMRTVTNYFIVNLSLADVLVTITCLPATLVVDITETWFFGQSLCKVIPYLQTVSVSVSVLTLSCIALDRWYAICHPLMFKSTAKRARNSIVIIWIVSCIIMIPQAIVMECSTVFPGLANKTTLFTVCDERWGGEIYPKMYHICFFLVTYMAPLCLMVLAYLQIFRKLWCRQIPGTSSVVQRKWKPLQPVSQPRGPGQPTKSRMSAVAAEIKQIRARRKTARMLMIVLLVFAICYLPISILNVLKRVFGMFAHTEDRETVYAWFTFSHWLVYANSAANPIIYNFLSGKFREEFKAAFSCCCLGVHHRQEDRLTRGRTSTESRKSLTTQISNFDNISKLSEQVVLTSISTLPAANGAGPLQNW

In the case of `COc1ccc(-n2c(SCc3ccc([N+](=O)[O-])cc3)nnc2-c2ccc(C)cc2)cc1`, the EC50 [1] is reported as 1.35 µM (active), the EC50 [2] is reported as > 60 µM (inconclusive) and the EC50 [3] is reported as > 260 µM (inactive). The AC50 (CAAX prenyl protease 2) was 5.39 µM (active).

For `COc1ccc(OCCNc2cc(N3CCOCC3)ccc2[N+](=O)[O-])cc1`, the IC50 [4] was 13.8 µM (not active), the EC50 (Insulin-degrading enzyme [5]) was > 54.7 µM (inactive) and the EC50 (Insulin-degrading enzyme [6]) was > 54.7 µM (inactive). The IC50 (HEK293 [7]) was > 89.3 µM (inactive) and the EC50 (HEK293 [8]) was > 56 µM (inactive).

In the case of `COc1cccc(/C=C2/Oc3ccccc3N(CC(=O)NCC3CCCO3)C2=O)c1` (centres undefined), the IC50 (CHO-K1) is reported as > 66.2 µM (inactive), the IC50 [9] is reported as > 49.7 µM (inactive) and the IC50 [10] is reported as 0.254 µM (active). For the same compound, the IC50 [11] was 0.426 µM (active), the IC50 (Orexin receptor type 2 [12]) was 3.82 µM (active) and the IC50 (Orexin receptor type 2 [13]) was 0.96 µM (active).

For `O=C(Nc1ccncc1)c1ccc2c(c1)OCO2`, the IC50 [14] was > 99 µM (inactive), the IC50 (Caspase-3) was 14.4 µM (active) and the IC50 [15] was > 99 µM (inactive). For the same compound, the IC50 [16] was 33.8 µM (active).
